Patent US20110136745A1, “METHOD OF SELECTING SOYBEANS WITH ENHANCED BIOACTIVITY AND COMPOSITIONS FOR REDUCING CANCER CELL VIABILITY” (Monsanto Technology LLC., priority 2008, published 2011)

System: L1210 leukemia cells
Assay: Cytotoxicity assay on L1210 leukemia cells (Cell Counting Kit-8)
Conditions: positive control at 1.0 μM

## COc1cc([C@@H]2c3cc4c(cc3[C@@H](O[C@@H]3O[C@@H]5CO[C@@H](C)O[C@H]5[C@H](O)[C@H]3O)[C@H]3COC(=O)[C@H]23)OCO4)cc(OC)c1O [etoposide, Etoposide]
  inhibition of L1210 leukemia cell growth: 90.5%
